The source of these data is patent publication US20260210856A1, “CONJUGATED OLIGOELECTROLYTES WITH BORON-DIPYRROMETHENE CORES AND METHODS THEREOF” (National University of Singapore, priority 2022, published 2026).

A value given as a limit tells only on which side of the number the result lay.

A short description of series [1]: Photophysical properties in PBS and in SUVs (POPC:POPG 85:15). The note with it: for FWHM: fluorescence spectra, intercalated within SUVs; for fluorescence intensity increase upon inserting into lipid bilayers: relative to the values measured in PBS. It counts as physicochemical. The source says:
The photophysical properties of the COE-BY series were studied in phosphate-buffered saline (PBS) and within model lipid bilayers. Small unilamellar vesicles (SUVs) composed of 1-palmitoyl-2-oleoyl-glycero-3-phosphocholine (POPC) and 1-palmitoyl-2-oleoyl-sn-glycero-3-phospho-(1′-rac-glycerol) sodium (POPG) (85:15, mol/mol) were used to simulate the lipid environment in cell membranes. The absorption spectra in PBS for all compounds feature a main peak at ~550 nm, reflecting the presence of the BODIPY subunit (FIG. 9A). One also observes a 5-10 nm red-shift of lowest energy absorption peak with increasing electron-withdrawing strength of the phenyl substituents.
Upon inserting into lipid bilayers, the fluorescence intensity increases over 27-fold for COE-BYPhMe, 30-fold for COE-BYPhOC4, 35-fold for COE-BYPhCN and 40-fold for COE-BYPhNO, relative to the values measured in PBS (FIG. 1c and FIG. S5). The increase in emission intensity reflects a transition to a more rigid and hydrophobic environment. Quantum yields increase to 32% for COE-BYPhMe, 60% for COE-BYPhOC4, 13% for COE-BYPhCN, and 10% for COE-BYPhNO in SUVs from 1% for COE-BYPhMe, 3% for COE-BYPhOC4, and 0.5% for COE-BYPhCN in PBS. The QY of COE-BYPhNO in PBS cannot be accurately determined by using a conventional fluorometer due to its weak fluorescence. The maximum emission wavelengths are redshifted from 587/589 nm (COE-BYPhMe/OC4) to 605/611 nm (COE-BYPhCN/NO) as a result of the decreased HOMO-LUMO energy gaps. […] Furthermore, the fluorescence spectra of COE-BYs intercalated within SUVs show a narrow band at wavelengths between 587 nm and 611 nm, with a full width half maximum (FWHM) linewidth of 52-68 nm (Table 1).

The subject of series [2] is A549 cells. Briefly: Two-photon fluorescence imaging and FLIM of stained cells. It counts as cell-based. The note with it: A549, 1 μM, 24 hours. The text has this:
Fluorescence imaging is usually based on the analysis of fluorescence intensity, which is affected by many factors including dye concentration, laser power, the sensitivity of the detector, and sampling time. The main advantage of fluorescence lifetime imaging (FLIM) is independent of the above experimental conditions, especially the local dye concentration gradients, which makes FLIM an ideal method for studies in living cell models. […] The fluorescence lifetime of COE-BYs could be a function of viscosity after calibration. FLIM makes it possible to produce spatial viscosity maps after staining with COE-BYs. A549 cells were stained with COE-BYPhMe and COE-S6 (1 μM) for 24 hours, respectively. The cell samples were analyzed using two-photon fluorescence imaging and FLIM.

For series [3] the following is noted: commercial dyes for comparison; cited from earlier work.

Regarding `CC1=C(c2ccc(/C=C/c3cc(OCCCCCC[N+](C)(C)C)c(OCCCCCC[N+](C)(C)C)c(OCCCCCC[N+](C)(C)C)c3)cc2)C(C)=[N+]2C1=C(c1ccc(C#N)cc1)c1c(C)c(-c3ccc(/C=C/c4cc(OCCCCCC[N+](C)(C)C)c(OCCCCCC[N+](C)(C)C)c(OCCCCCC[N+](C)(C)C)c4)cc3)c(C)n1[B-]2(F)F.[I-].[I-].[I-].[I-].[I-].[I-]` [COE-BYPhCN], in series [1], the FWHM is given as 63 nm, the “ΦF in SUVs” value was determined as 13%, the “λem in SUVs” value amounted to 605 nm and the “fluorescence intensity increase upon inserting into lipid bilayers” value was more than 35 fold. In series [1] (in PBS), the “ΦF in PBS” value amounted to 0.5%, the λabs is 550 nm and the “λem in PBS” value turned out to be 618 nm.
`CC1=C(c2ccc(/C=C/c3cc(OCCCCCC[N+](C)(C)C)c(OCCCCCC[N+](C)(C)C)c(OCCCCCC[N+](C)(C)C)c3)cc2)C(C)=[N+]2C1=C(c1ccc([N+](=O)[O-])cc1)c1c(C)c(-c3ccc(/C=C/c4cc(OCCCCCC[N+](C)(C)C)c(OCCCCCC[N+](C)(C)C)c(OCCCCCC[N+](C)(C)C)c4)cc3)c(C)n1[B-]2(F)F.[I-].[I-].[I-].[I-].[I-].[I-]` [COE-BYPhNO]: in series [1], the FWHM came out at 68 nm, the “ΦF in SUVs” value came to 10%, the “λem in SUVs” value is given as 611 nm and the “fluorescence intensity increase upon inserting into lipid bilayers” value is more than 40 fold. In addition, in series [1] (in PBS), the λabs was found to be 556 nm and the “λem in PBS” value came to 625 nm.
On to `C[N+](C)(C)CCCCCCOc1cc(/C=C/c2ccc(/C=C/c3ccc(/C=C/c4ccc(/C=C/c5ccc(/C=C/c6cc(OCCCCCC[N+](C)(C)C)c(OCCCCCC[N+](C)(C)C)c(OCCCCCC[N+](C)(C)C)c6)cc5)cc4)cc3)cc2)cc(OCCCCCC[N+](C)(C)C)c1OCCCCCC[N+](C)(C)C.[I-].[I-].[I-].[I-].[I-].[I-]` [COE-S6], for which the “lifetimes in phasor plot” value in series [2] is recorded as “only single area in the phasor plot”.
For `CCCCCCCCCCCCCCCCCCN1/C(=C/C=C/C2=[N+](CCCCCCCCCCCCCCCCCC)c3ccccc3C2(C)C)C(C)(C)c2ccccc21.[O-][Cl+3]([O-])([O-])[O-]` [DiL, carbocyanine DiL], the “two photon absorption cross section area” value in series [3] was 10 GM.
Turning to `CCN(CC)c1ccc2c(-c3ccccc3C(=O)O)c3ccc(=[N+](CC)CC)cc-3oc2c1.[Cl-]` [Rhodamine B], the “two photon absorption cross section area” value in series [3] was 150 GM.
